Results reported in patent US20260285850A1, “SUBSTITUTED OXAZOLIDINONES AND IMIDAZOLINONES AS HERBICIDES” (FMC CORPORATION, priority 2023, published 2026).

Legend:
Type in all cases: in vivo
[1] = tested on: barnyardgrass (Echinochloa crusgalli); test: Test B flooded paddy test, visual plant response rating 0-100; conditions: 250 g ai/ha, Flood, applied to paddy water, evaluated after 13 days
Method in brief: (§1)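 Plants were grown to the 2-leaf stage, then pots were flooded to 3 cm above the soil and test compounds were applied directly into the paddy water. Water depth was held there throughout; after 13 days in a greenhouse, injury was scored visually against untreated controls.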

[2] = tested on: sedge, umbrella (small-flower umbrella sedge, Cyperus difformis); test: as above; conditions: 250 g ai/ha, Flood, applied to paddy water, evaluated after 13 days
Method in brief: as §1

rice (Oryza sativa) = test: as above; conditions: 250 g ai/ha, Flood, applied to paddy water, evaluated after 13 days
Method in brief: as §1

[3] = tested on: ducksalad (Heteranthera limosa); test: as above; conditions: 250 g ai/ha, Flood, applied to paddy water, evaluated after 13 days
Method in brief: as §1

[4] = tested on: palmer (palmer amaranth, palmer pigweed, Amaranthus palmeri); test: Test A preemergence soil spray, visual injury rating 0-100; conditions: 10 days
Method in brief: (§2)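 Rating: visual, day 10, untreated plants as reference, 0 no effect to 100 full control. Plants were in loam-sand and were treated either preemergence via directed soil spray or postemergence at the one- to two-leaf stage.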

[5] = tested on: blackgrass (Alopecurus myosuroides); test: as above; conditions: 10 days
Method in brief: as §2

corn (Zea mays) [6] = test: as above; conditions: 10 days
Method in brief: as §2

[7] = tested on: wheat (Triticum aestivum); test: as above; conditions: 10 days
Method in brief: as §2

soybean (Glycine max) [8] = test: as above; conditions: 10 days
Method in brief: as §2

[9] = tested on: ryegrass, Italian (italian ryegrass, Lolium multiflorum); test: as above; conditions: 10 days
Method in brief: as §2

[10] = tested on: oat, wild (wild oat, Avena fatua); test: as above; conditions: 10 days
Method in brief: as §2

[11] = tested on: barnyardgrass (Echinochloa crus-galli); test: as above; conditions: 10 days
Method in brief: as §2

[12] = tested on: green foxtail (Setaria viridis); test: as above; conditions: 10 days
Method in brief: as §2

kochia (Bassia scoparia) [13] = test: as above; conditions: 10 days
Method in brief: as §2

[14] = tested on: ragweed (common ragweed, Ambrosia artemisiifolia); test: as above; conditions: 10 days
Method in brief: as §2

[15] = tested on: galium (catchweed bedstraw, Galium aparine); test: Test A postemergence application, visual injury rating 0-100
Method in brief: as §2

[16] = tested on: palmer (palmer amaranth, palmer pigweed, Amaranthus palmeri); test: as above
Method in brief: as §2

[17] = tested on: blackgrass (Alopecurus myosuroides); test: as above
Method in brief: as §2

corn (Zea mays) [18] = test: as above
Method in brief: as §2

[19] = tested on: wheat (Triticum aestivum); test: as above
Method in brief: as §2

soybean (Glycine max) [20] = test: as above
Method in brief: as §2

[21] = tested on: ryegrass, Italian (italian ryegrass, Lolium multiflorum); test: as above
Method in brief: as §2

[22] = tested on: oat, wild (wild oat, Avena fatua); test: as above
Method in brief: as §2

[23] = tested on: barnyardgrass (Echinochloa crus-galli); test: as above
Method in brief: as §2

[24] = tested on: horseweed (Erigeron canadensis); test: as above
Method in brief: as §2

[25] = tested on: green foxtail (Setaria viridis); test: as above
Method in brief: as §2

kochia (Bassia scoparia) [26] = test: as above
Method in brief: as §2

[27] = tested on: ragweed (common ragweed, Ambrosia artemisiifolia); test: as above
Method in brief: as §2

[28] = 62 g ai/ha, 0 = no effect, 100 = complete control
[29] = 62 g ai/ha, postemergence, 10 days, 0 = no effect, 100 = complete control
[30] = Postemergence, 16 g ai/ha, greenhouse 10 days, 0 no effect, 100 complete control

COC(=O)C1C=CC(NC(=O)C2(C)CN(c3cc(F)cc(F)c3)C(=O)O2)C1 (stereo not shown) [Compound 92]
Plant response rating, Barnyardgrass (0 to 100 scale, 0 is no effect and 100 is complete control) [1]: 0 | Plant response rating, Sedge, Umbrella (0 to 100 scale, 0 is no effect and 100 is complete control) [2]: 0 | Plant response rating, Rice (0 to 100 scale, 0 is no effect and 100 is complete control) (rice (Oryza sativa)): 0 | Plant response rating, Ducksalad (0 to 100 scale, 0 is no effect and 100 is complete control) [3]: 0 | Pigweed, Palmer plant response rating ([4]; 16 g ai/ha, 0 to 100 scale): 0 | Pigweed, Palmer plant response rating (0-100) [4, 28]: 70 | Blackgrass plant response rating ([5]; 16 g ai/ha, 0 to 100 scale): 0 | Blackgrass plant response rating (0-100) [5, 28]: 0 | Corn plant response rating (corn (Zea mays) [6]; 16 g ai/ha, 0 to 100 scale): 0 | Corn plant response rating (0-100) (corn (Zea mays) [6]; [28]): 0 | Wheat plant response rating ([7]; 16 g ai/ha, 0 to 100 scale): 0 | Wheat plant response rating (0-100) [7, 28]: 0 | Soybean plant response rating (soybean (Glycine max) [8]; 16 g ai/ha, 0 to 100 scale): 0 | Soybean plant response rating (0-100) (soybean (Glycine max) [8]; [28]): 0 | Ryegrass, Italian plant response rating ([9]; 16 g ai/ha, 0 to 100 scale): 0 | Ryegrass, Italian plant response rating (0-100) [9, 28]: 0 | Oat, Wild plant response rating ([10]; 16 g ai/ha, 0 to 100 scale): 0 | Oat, Wild plant response rating (0-100) [10, 28]: 0 | Barnyardgrass plant response rating ([11]; 16 g ai/ha, 0 to 100 scale): 0 | Barnyardgrass plant response rating (0-100) [11, 28]: 0 | Foxtail, Green plant response rating ([12]; 16 g ai/ha, 0 to 100 scale): 0 | Foxtail, Green plant response rating (0-100) [12, 28]: 0 | Kochia plant response rating (kochia (Bassia scoparia) [13]; 16 g ai/ha, 0 to 100 scale): 0 | Kochia plant response rating (0-100) (kochia (Bassia scoparia) [13]; [28]): 0 | Ragweed plant response rating ([14]; 16 g ai/ha, 0 to 100 scale): 0 | Ragweed plant response rating (0-100) [14, 28]: 0 | Galium plant response rating (0-100) [15, 29]: 0 | Galium plant response rating (0 to 100 scale) [15, 30]: 0 | Pigweed, Palmer plant response rating (0-100) [16, 29]: 0 | Pigweed, Palmer plant response rating (0 to 100 scale) [16, 30]: 0 | Blackgrass plant response rating (0-100) [17, 29]: 0 | Blackgrass plant response rating (0 to 100 scale) [17, 30]: 0 | Corn plant response rating (0-100) (corn (Zea mays) [18]; [29]): 0 | Corn plant response rating (0 to 100 scale) (corn (Zea mays) [18]; [30]): 0 | Wheat plant response rating (0-100) [19, 29]: 0 | Wheat plant response rating (0 to 100 scale) [19, 30]: 0 | Soybean plant response rating (0-100) (soybean (Glycine max) [20]; [29]): 0 | Soybean plant response rating (0 to 100 scale) (soybean (Glycine max) [20]; [30]): 0 | Ryegrass, Italian plant response rating (0-100) [21, 29]: 0 | Ryegrass, Italian plant response rating (0 to 100 scale) [21, 30]: 0 | Oat, Wild plant response rating (0-100) [22, 29]: 0 | Oat, Wild plant response rating (0 to 100 scale) [22, 30]: 0 | Barnyardgrass plant response rating (0-100) [23, 29]: 0 | Barnyardgrass plant response rating (0 to 100 scale) [23, 30]: 0 | Horseweed plant response rating (0-100) [24, 29]: 0 | Horseweed plant response rating (0 to 100 scale) [24, 30]: 0 | Foxtail, Green plant response rating (0-100) [25, 29]: 0 | Foxtail, Green plant response rating (0 to 100 scale) [25, 30]: 0 | Kochia plant response rating (0-100) (kochia (Bassia scoparia) [26]; [29]): 0 | Kochia plant response rating (0 to 100 scale) (kochia (Bassia scoparia) [26]; [30]): 0 | Ragweed plant response rating (0-100) [27, 29]: 20 | Ragweed plant response rating (0 to 100 scale) [27, 30]: 0
